Several values for one entry are separate records, joined by “and”; a condition that tells them apart may be missing. Equal entries are not always repeated. Structures can show the parent of a compound that is named as a salt.
Key:
[1] = test system: mouse brainstem glioma model; set-up: method as in PMID 25712742; conditions: doses demonstrated to be effective in cell culture; cited from earlier work
[2] = set-up: method as in PMID 25740692; conditions: oral, adult non-tumor bearing rhesus monkeys, cerebrospinal fluid; cited from earlier work
[3] = cited from earlier work
[4] = test system: telomerase; set-up: method as in PMID 26307677; conditions: cited from earlier work
[5] = Steady state plasma pharmacokinetics (LC/electrospray MS); type: in vivo, human
Description: Samples for pharmacokinetic analysis were obtained at baseline and during weeks 2 through 4 of cycle 1. At each time point, heparinized blood was collected into a plastic vacutainer to minimize adhesion of perifosine. Plasma was separated by centrifugation and stored in polypropylene cryovials at -70°C until assayed. Perifosine in plasma was measured by a validated reversed phase liquid chromatography/electrospray mass spectrometry method as developed and validated by Woo et al..

[6] = test system: medulloblastoma cell lines; set-up: method as in PMID 19887560, PMID 26269112; conditions: cited from earlier work
[7] = test system: Rhabdomyosarcoma cell lines; set-up: method as in PMID 19887560, PMID 26269112; conditions: cited from earlier work

## CCCCCCCCCCCCCCCCCCOP(=O)([O-])OC1CC[N+](C)(C)CC1 [perifosine, 1,1-Dimethyl-4-[[(octadecyloxy)hydroxyphosphinyl]oxy]-piperidinium inner salt]
[1]
  Acute toxicity after convection enhanced delivery: no serious acute toxicities
[2]
  CNS penetration: limited
[3]; 2 adult studies
  Dose at which dose exposure plateau was reached: higher than 100 mg/m^2/day
[3]
  Plasma half-life: approximately 4 days
[4]
  Doses inhibiting telomerase activity: low micromolar
[5]; dose level 1, target 25 mg/m^2/day, patients 1,2,3, steady state
  Average Plasma Level (standard deviation): 6.8 (1.6) μg/mL
[5]; dose level 2, target 50 mg/m^2/day, patients 4,5,6, steady state
  Average Plasma Level (standard deviation): 14.4 (2.5) μg/mL and 39.0 (6.8) μM
[5]; dose level 3, target 75 mg/m^2/day, patients 7-11, steady state
  Average Plasma Level (standard deviation): 11.5 (3.1) μg/mL and 31.1 (8.5) μM
[5]; dose level 4, target 100 mg/m^2/day, patients 12-17, steady state
  Average Plasma Level (standard deviation): 12.7 (6.1) μg/mL and 34.4 (16.5) μM
[5]; dose level 5, target 125 mg/m^2/day, patients 18-22, steady state
  Average Plasma Level (standard deviation): 12.1 (3.5) μg/mL and 32.8 (9.5) μM
[5]; observed in most patients
  Steady state plasma levels: above 10 μM
[5]; pediatric patients, steady state plasma levels
  Maintenance dose at which dose exposure plateau is reached: 50 mg/m^2/day
[6]
  IC50: 25 µM
[7]
  IC50: ~10 µM

Source: PMC5459446, “A phase I study of single-agent perifosine for recurrent or refractory pediatric CNS and solid tumors” (PLoS ONE, 2017)
